What was measured:
serum prolactin = experiment: In vivo effect on pituitary prolactin secretion (17-β-estradiol primed male rats); settings: Intravenous administration, 1 mg/kg dose level
Source text: Adult male rats (Charles Rivers, CD-1) weighing 200 to 225 g were provided food and water ad libitum for at least one week period to experimentation. To elevate serum prolactin levels, each rat received a single s.c. implant of a Silastic tube (1.57 mm interior diameter, 5 mm x 3.15 mm overall size) packed with crystalline 17-,8-estradiol. Two days later the rats were lightly anesthetized with ether and a small incision was made over the right jugular vein for intravenous (LV.) administration of the test drugs. Compound 6a was injected at a dose of 1 mg/kg body weight/ml saline and groups of six rats were decapitated at 15, 30, 60 and 120 min later to collect blood samples. Control rats (time 0) received an I.V. injection of the saline vehicle and were decapitated 30 min later. Compound 5c was dissolved in 10% ethanol in saline and was injected IV. Rats were decapitated at 15, 30 and 120 min later. Control (time 0) animals received the 10% ethanol vehicle and were sampled 30 min later.
Trunk blood was collected, allowed to clot for 2h and the serum was separated and stored at -20 ° C for subsequent assay for prolactin concentrations. Each serum sample was assayed in duplicate by the doubleantibody radioimmunoassay procedure described by the National Pituitary Agency Hormone Distribution Program. Serum prolactin concentrations are expressed in terms of the PRL-RP-2 reference preparation provided. The intraassay coefficient of variation for 10 replicate samples of pooled serum obtained from male rats was 13.8%.
The effects of compounds 5c and 6a on serum prolactin concentrations were evaluated by one-way analysis of variance and Student-Newman Keuls tests. A probability level of less than 0.05 was selected for significance. See FIGURE 7 and the discussion thereof hereinabove.

[1] = Enzymatic hydrolytic cleavage and rate of oxidation of compound 5c in rat brain homogenate (HPLC); format: in vitro ADME, Sprague-Dawley rats; settings: rat, pH 7.4; 20% brain homogenate, 37°C, pseudo first order; read-out: apparent half-lives for the disappearance
Procedure: (§1) A high pressure liquid chromatography (HPLC) method was developed for the studies of the degradation of the dihydropyridine dopamine derivative. The chromatographic analysis was performed on a component system consisting of a Waters Associate Model 6000A solvent delivery system, Model U6K injector and Model 440 dual channel absorbance detector operated at 254 and 280 nm. A 30 cm x 3.9 mm (internal diameter) reverse phase µBondapak C18 column (Waters Associates), operated at ambient temperature, was used for all separations. The mobile phase used for the separation of the dihydropyridine derivative, its degradation products and oxidation products consisted of 0.005 M solution of 1-heptanesul- fonic acid sodium salt (PIC B-7 Eastman Kodak) in CH3CN; 0.01 M aqueous dibasic ammonium phosphate (2.5:1). A peak was always shown at a retention time of 2.2 min which is believed to be a monodeacylated dihydropyridine derivative, since it eventually did result in 6a.
The brain homogenate was prepared by the following method. Five Sprague-Dawley rats were killed by decapitation and the brains were removed, weighed (total weight 9.85 g) and homogenized in 49.3 ml of aqueous 0.11 M phosphate buffer, pH 7.4. The homogenate was centrifuged and the supernatant was used for the test. […] Each supernatant was filtered through two Whatman 1 filter papers and analyzed by HPLC.

[2] = Enzymatic hydrolytic cleavage and rate of oxidation of compound 5c in human plasma (HPLC); format: in vitro ADME; settings: 80% plasma, 37°C, pseudo first order, read-out: apparent half-lives for the disappearance
Procedure: as §1
The freshly collected plasma used was obtained at the Civitan Regional Blood Center, Inc. (Gainesville, Florida) and contained about 80% plasma diluted with anticoagulant citrate phosphate dextrose solution U.S.P. The plasma was stored in a refrigerator and used the next day. […] When all samples had been collected, they were centrifuged and the supernatants were filtered through Whatman 1 filter papers and analyzed to HPLC.

CN1C=CCC(C(=O)NCCc2ccc(OC(=O)C(C)(C)C)c(OC(=O)C(C)(C)C)c2)=C1 [5c, 1-Methyl-3-(N-[β-(3,4-dipivalyloxyphenyl)-ethyl]}carbamoyl-1,4-dihydropyridine]
time through which the reduction of serum prolactin was maintained (serum prolactin): ≥ 120 min | decrease in serum prolactin concentrations (serum prolactin; male rats exposed to 17-β-estradiol): 79% | half-life at 1800 µM [1]: 17 min | half-life at 3050 µM [2]: 51 min
